We go through one molecule from ChEMBL document CHEMBL3751718, “Synthesis and biological evaluation of lipid-like 5-(2-hydroxyethyl)-4-methyl-1,3-thiazole derivatives as potential anticancer and antimicrobial agents” (Medchemcomm, 2015).

Test [1] relates to Candida albicans. Put plainly: Antifungal activity against Candida albicans MSCL 378 after 24 hrs by broth dilution method. The following applies: MSCL 378, 24 h. The format is functional.
Test [2] has as its system Candida albicans. Put plainly: Fungicidal activity against Candida albicans MSCL 378 incubated for 24 hrs followed by colony transfer to agar plates for 24 hrs by colony counting based assay. It is filed as functional. The following applies: MSCL 378, 24 h, read-out: MFC99.9.
Test [3] has as its system Aspergillus niger. Put plainly: Antifungal activity against Aspergillus niger MSCL 324 after 24 hrs by broth dilution method. The format is functional. The following applies: MSCL 324, 24 h. (Dilution methods test growth across graded concentrations, often in twofold steps.)
For test [4], the system named is Aspergillus niger. Put plainly: Fungicidal activity against Aspergillus niger MSCL 324 incubated for 24 hrs followed by colony transfer to agar plates for 24 hrs by colony counting based assay. It is filed as functional. Particulars: MSCL 324, 24 h, read-out: MFC99.9.
Test [5] relates to Candida albicans. Put plainly: Antifungal activity against Candida albicans MSCL 378 at 2 mg/ml after 48 hrs by agar dish diffusion method. The format is functional. The following applies: MSCL 378, 48 h, read-out: DIZ.
The subject of test [6] is Aspergillus niger. Put plainly: Antifungal activity against Aspergillus niger MSCL 324 at 2 mg/ml after 48 hrs by agar dish diffusion method. The format is functional. The following applies: MSCL 324, 48 h, read-out: DIZ.
For test [7], the system named is Aspergillus niger. Put plainly: Antifungal activity against Aspergillus niger MSCL 324 at 4 mg/ml after 48 hrs by agar dish diffusion method. Particulars: MSCL 324, 48 h, read-out: DIZ. It is filed as functional.
Test [8] has as its system Staphylococcus aureus. Put plainly: Antibacterial activity against Staphylococcus aureus MSCL 334 at 2 mg/ml after 24 hrs by agar dish diffusion method. The format is functional, organism-based.
Test [9] deals with Staphylococcus aureus. Put plainly: Antibacterial activity against Staphylococcus aureus MSCL 334 at 4 mg/ml after 24 hrs by agar dish diffusion method. It is filed as functional, organism-based.
Test [10] concerns Bacillus cereus. Put plainly: Antibacterial activity against Bacillus cereus MSCL 330 at 2 mg/ml after 24 hrs by agar dish diffusion method. It is filed as functional, organism-based.
Test [11] deals with Bacillus cereus. Put plainly: Antibacterial activity against Bacillus cereus MSCL 330 at 4 mg/ml after 24 hrs by agar dish diffusion method. It is filed as functional, organism-based.
Test [12] concerns Escherichia coli. Put plainly: Antibacterial activity against Escherichia coli MSCL 332 at 2 mg/ml after 24 hrs by agar dish diffusion method. It is filed as functional, organism-based.
Test [13] relates to Escherichia coli. Put plainly: Antibacterial activity against Escherichia coli MSCL 332 at 4 mg/ml after 24 hrs by agar dish diffusion method. The format is functional, organism-based.
For test [14], the system named is Pseudomonas aeruginosa. Put plainly: Antibacterial activity against Pseudomonas aeruginosa MSCL 331 at 2 mg/ml after 24 hrs by agar dish diffusion method. It is filed as functional, organism-based.
Test [15] relates to Pseudomonas aeruginosa. Put plainly: Antibacterial activity against Pseudomonas aeruginosa MSCL 331 at 4 mg/ml after 24 hrs by agar dish diffusion method. It is filed as functional, organism-based.
Test [16] relates to Proteus mirabilis. Put plainly: Antibacterial activity against Proteus mirabilis MSCL 590 at 2 mg/ml after 24 hrs by agar dish diffusion method. The format is functional, organism-based.
For test [17], the system named is Proteus mirabilis. Put plainly: Antibacterial activity against Proteus mirabilis MSCL 590 at 4 mg/ml after 24 hrs by agar dish diffusion method. The format is functional, organism-based.

Each structure is given as a SMILES string. In brackets after ≈: the same amount, converted by molar mass. Activity calls are given as the source filed them. The calls are words filed in the database; no cut-off is given here. A value given as a limit tells only on which side of the number the result lay.

Usually MIC stands for the lowest concentration found to suppress growth. A high value points to weaker potency. On to `OC(Cn1cncn1)(Cn1cncn1)c1ccc(F)cc1F` [FLUCONAZOLE], for which the MIC against Candida albicans [1] is 32 µg/mL (≈ 104 µM); against Aspergillus niger [3] it was 8 µg/mL (≈ 26.1 µM). Besides, the MFC in the test with Candida albicans [2] and with Aspergillus niger [4] was greater than 256 µg/mL each time. Besides, the zone of inhibition at 2000 µg/mL came to 10 mm with Candida albicans [5] and 11 mm with Aspergillus niger [6]. The zone of inhibition at 4000 µg/mL with Aspergillus niger [7] was 18 mm. Moreover, the “diameter of the inhibition zone (DIZ)” value with Staphylococcus aureus [8], with Staphylococcus aureus [9], in the test with Bacillus cereus [10], in the test on Bacillus cereus [11], with Escherichia coli [12] and in the test with Escherichia coli [13] was “inactive” throughout. In addition, the “diameter of the inhibition zone (DIZ)” value in the test with Pseudomonas aeruginosa [14], in the test with Pseudomonas aeruginosa [15], with Proteus mirabilis [16] and in the test on Proteus mirabilis [17] was “inactive” in each case.
